Results taken from patent US7858635B2 (priority 2005, dated 2010).
Like-named read-outs stand apart in the source and are kept apart here.

How the values were obtained:
M1 muscarinic receptor = target: T1, M1 muscarinic receptor (Homo sapiens, UniProt P11229); assay: Functional mobilization of intracellular calcium (FLIPR, Fluo-3), M1-CHO cells; type: cell-based; settings: for Emax: read-out: M1 Efficacy
T1 construct: expressed in transfected cells; host or cells: CHO cells (M1-CHO, under zeocin and G418 selection)
T1 sequence (P11229 1-460): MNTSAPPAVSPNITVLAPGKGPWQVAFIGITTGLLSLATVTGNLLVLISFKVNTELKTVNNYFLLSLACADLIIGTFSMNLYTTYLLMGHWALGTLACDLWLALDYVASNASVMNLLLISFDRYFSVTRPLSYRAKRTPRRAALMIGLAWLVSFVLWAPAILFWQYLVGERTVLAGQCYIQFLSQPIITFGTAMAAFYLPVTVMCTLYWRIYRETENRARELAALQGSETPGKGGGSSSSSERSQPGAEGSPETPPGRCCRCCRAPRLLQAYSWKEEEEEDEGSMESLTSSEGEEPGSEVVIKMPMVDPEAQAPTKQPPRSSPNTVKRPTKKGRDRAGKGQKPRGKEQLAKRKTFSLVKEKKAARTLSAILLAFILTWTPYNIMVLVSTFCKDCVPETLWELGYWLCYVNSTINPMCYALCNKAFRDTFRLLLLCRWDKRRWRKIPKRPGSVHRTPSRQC
How it was run: (§1)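 Intracellular calcium was tracked by fluorescence (488/540 nm) over 60 sec after compound addition to dye-loaded CHO cells expressing the receptor. Inhibitory activity used a 15 min pre-incubation before carbachol at the subtype EC80.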

M4 muscarinic receptor = target: T2, M4 muscarinic receptor (Homo sapiens, UniProt P08173); assay: Functional mobilization of intracellular calcium (FLIPR, Fluo-3), M4-CHO cells; type: cell-based; settings: for Emax: read-out: M4 Efficacy
T2 construct: expressed in transfected cells; host or cells: CHO cells (M4-CHO, under puromycin, zeocin and blasticidin selection)
T2 sequence (P08173 1-479): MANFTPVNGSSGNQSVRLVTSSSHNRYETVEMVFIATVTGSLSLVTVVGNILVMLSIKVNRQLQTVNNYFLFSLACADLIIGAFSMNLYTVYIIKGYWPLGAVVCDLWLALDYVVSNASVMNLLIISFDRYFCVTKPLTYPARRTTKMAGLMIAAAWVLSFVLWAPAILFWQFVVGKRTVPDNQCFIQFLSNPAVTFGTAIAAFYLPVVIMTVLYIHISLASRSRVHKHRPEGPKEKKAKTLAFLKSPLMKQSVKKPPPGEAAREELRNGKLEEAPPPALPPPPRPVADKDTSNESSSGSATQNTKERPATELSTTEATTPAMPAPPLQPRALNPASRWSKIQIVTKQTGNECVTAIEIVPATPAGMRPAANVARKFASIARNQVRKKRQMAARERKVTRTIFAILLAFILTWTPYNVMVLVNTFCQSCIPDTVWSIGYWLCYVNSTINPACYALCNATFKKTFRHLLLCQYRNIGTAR
How it was run: as §1

[1] = compound nos. 455-509, 100% efficacy is the maximum response obtained with the Carbachol control
[2] = compound nos. 1-454, 100% efficacy is the maximum response obtained with the Carbachol control
[3] = compound nos. 1-454, M1-CHO cells, calcium mobilization
[4] = compound nos. 1-454, M4-CHO cells, calcium mobilization

| SMILES | Emax (M1 muscarinic receptor; [2]) | M1 Activity (M1 muscarinic receptor; [3]) | Emax (M4 muscarinic receptor; [2]) | M4 Activity (M4 muscarinic receptor; [4]) | also measured |
| --- | --- | --- | --- | --- | --- |
| CCCc1cnc(N2CCC(N3CCC4(CC3)CN(C(=O)N(C)C)c3ccccc34)CC2)cn1 [compound 459] | – | – | – | – | Emax (M1 muscarinic receptor; [1]): > 100%; M1 Activity (M1 muscarinic receptor; compounds 455-509): ++ (activity was measured to be between 2.0 μM and 5.0 μM); Emax (M4 muscarinic receptor; [1]): 25 to 100%; M4 Activity (M4 muscarinic receptor; compounds 455-509): ++ (activity was measured to be between 2.0 μM and 5.0 μM) |
| O=C(O[C@@H]1CCOC1)N1C2CCC1CC(N1CCC3(CC1)C(=O)Nc1ccccc13)C2 (stereo partly shown) [compound 336] | < 65% | + (activity was measured to be greater than or equal to 3.0 μM) | < 55% | + (activity was measured to be greater than or equal to 4.0 μM) | – |
| C#CCCOC(=O)N1CCC(N2CCC3(CC2)CN(C(=O)N(C)C)c2ccc(F)cc23)CC1 [compound 127] | 65 to 85% | +++ (activity was measured to be less than or equal to 0.7 μM) | < 55% | ++ (activity was measured to be between 0.1 μM and 4.0 μM) | – |
| CC(=O)N1CC2(CCN(C3CCN(C(=O)O[C@H]4CCOC4)CC3)CC2)c2cc(C)ccc21 [compound 398] | < 65% | – | < 55% | – | M1 Activity (M1 muscarinic receptor; compound nos. 1-454): ++ (activity was measured to be between 0.7 μM and 3.0 μM); M4 Activity (M4 muscarinic receptor; compound nos. 1-454): + (activity was measured to be greater than or equal to 4.0 μM) |
| COC(=O)N1CCC(N2CCC3(CC2)CN(C(=O)N(C)C)c2ccc(F)cc23)CC1 [compound 154] | 65 to 85% | +++ (activity was measured to be less than or equal to 0.7 μM) | > 70% | +++ (activity was measured to be less than or equal to 0.1 μM) | – |
| CCOC(=O)N1CCC(N2CCC3(CC2)CN(C(C)=O)c2ccc(OC(F)(F)F)cc23)CC1 [compound 225] | < 65% | + (activity was measured to be greater than or equal to 3.0 μM) | < 55% | + (activity was measured to be greater than or equal to 4.0 μM) | – |
| COCCOC(=O)N1CCC(CN2CCC3(CC2)C[C@H](NC(C)=O)c2ccccc23)CC1 [compound 412] | < 65% | – | < 55% | – | M1 Activity (M1 muscarinic receptor; compound nos. 1-454): ++ (activity was measured to be between 0.7 μM and 3.0 μM); M4 Activity (M4 muscarinic receptor; compound nos. 1-454): + (activity was measured to be greater than or equal to 4.0 μM) |
| O=C(C1CC1)N1CC2(CCN(C3CC4CCC(C3)N4C(=O)O[C@@H]3CCOC3)CC2)c2cc(F)ccc21 (stereo partly shown) [compound 87] | 65 to 85% | +++ (activity was measured to be less than or equal to 0.7 μM) | < 55% | + (activity was measured to be greater than or equal to 4.0 μM) | – |
| CCCC1CCC(N2CCC3(CC2)CN(C(C)=O)c2ccc(F)cc23)CC1 (stereo not shown) [compound 131] | 65 to 85% | +++ (activity was measured to be less than or equal to 0.7 μM) | > 70% | ++ (activity was measured to be between 0.1 μM and 4.0 μM) | – |
| Cc1csc(N2CCC(N3CCC4(CCN(C(=O)N(C)C)c5ccccc54)CC3)CC2)n1 [compound 508] | – | – | – | – | Emax (M1 muscarinic receptor; [1]): 25 to 100%; M1 Activity (M1 muscarinic receptor; compounds 455-509): ++ (activity was measured to be between 2.0 μM and 5.0 μM); Emax (M4 muscarinic receptor; [1]): 25 to 100%; M4 Activity (M4 muscarinic receptor; compounds 455-509): ++ (activity was measured to be between 2.0 μM and 5.0 μM) |
| COc1ccc(OC(=O)N2C3CCC2CC(N2CCC4(CC2)COc2ccc(F)cc24)C3)cc1 (stereo not shown) [compound 100] | – | +++ (activity was measured to be less than or equal to 0.7 μM) | – | ++ (activity was measured to be between 0.1 μM and 4.0 μM) | Emax (M1 muscarinic receptor): 65 to 85%; Emax (M4 muscarinic receptor): 55 to 70% |
| CN(C)C(=O)N1CC2(CCN(C3CCN(C(=O)O[C@@H]4CCOC4)CC3)CC2)c2cc(F)ccc21 [compound 209] | > 85% | ++ (activity was measured to be between 0.7 μM and 3.0 μM) | < 55% | + (activity was measured to be greater than or equal to 4.0 μM) | – |
| CCCC1CCC(N2CCC3(CC2)CNc2ccc(Cl)cc23)CC1 (stereo not shown) [compound 341] | < 65% | + (activity was measured to be greater than or equal to 3.0 μM) | < 55% | + (activity was measured to be greater than or equal to 4.0 μM) | – |
| CCCOC(=O)N1C2CCC1CC(N1CCC3(CC1)CN(C(=O)O[C@@H]1CCOC1)c1ccc(F)cc13)C2 (stereo partly shown) [compound 115] | 65 to 85% | +++ (activity was measured to be less than or equal to 0.7 μM) | < 55% | ++ (activity was measured to be between 0.1 μM and 4.0 μM) | – |
| Cc1ccc2c(c1)C1(CCN(C3CC4CCC3C4)CC1)CN2C(=O)c1cc(C)n(C)n1 (stereo not shown) [compound 211] | 65 to 85% | + (activity was measured to be greater than or equal to 3.0 μM) | < 55% | + (activity was measured to be greater than or equal to 4.0 μM) | – |
| CC(=O)N[C@H]1CC2(CCN(C3C4CC5CC(C4)CC3C5)CC2)c2ccccc21 (stereo partly shown) [compound 4] | < 65% | +++ (activity was measured to be less than or equal to 0.7 μM) | < 55% | + (activity was measured to be greater than or equal to 4.0 μM) | – |
| CCOC(=O)N1C2CCC1CC(N1CCC3(CC1)CNc1ccccc13)C2 (stereo not shown) [compound 153] | > 85% | +++ (activity was measured to be less than or equal to 0.7 μM) | > 70% | +++ (activity was measured to be less than or equal to 0.1 μM) | – |
| CCOC(=O)N1CCC(N2CCC3(CC2)C(=O)Nc2ccccc23)CC1 [compound 191] | 65 to 85% | +++ (activity was measured to be less than or equal to 0.7 μM) | 55 to 70% | + (activity was measured to be greater than or equal to 4.0 μM) | – |
| Cc1csc(N2CCC(N3CCC4(CC3)CN(C(=O)N(C)C)c3ccccc34)CC2)n1 [compound 499] | – | – | – | – | Emax (M1 muscarinic receptor; [1]): > 100%; M1 Activity (M1 muscarinic receptor; compounds 455-509): + (activity was measured to be greater than or equal to 5.0 μM); Emax (M4 muscarinic receptor; [1]): 25 to 100%; M4 Activity (M4 muscarinic receptor; compounds 455-509): ++ (activity was measured to be between 2.0 μM and 5.0 μM) |
| O=C1Nc2ccccc2C12CCN(C1CC3CCC1C3)CC2 (stereo not shown) [compound 259] | 65 to 85% | + (activity was measured to be greater than or equal to 3.0 μM) | < 55% | + (activity was measured to be greater than or equal to 4.0 μM) | – |
| CCOC(=O)N1CCC(N2CCC3(CC2)CN(C(C)=O)c2ccc(-c4cccc(C)c4)cc23)CC1 [compound 6] | 65 to 85% | +++ (activity was measured to be less than or equal to 0.7 μM) | 55 to 70% | ++ (activity was measured to be between 0.1 μM and 4.0 μM) | – |
| CCCOC(=O)N1CCC(CN2CCC3(CC2)C[C@H](NC(C)=O)c2ccccc23)CC1 [compound 36] | 65 to 85% | +++ (activity was measured to be less than or equal to 0.7 μM) | > 70% | ++ (activity was measured to be between 0.1 μM and 4.0 μM) | – |
